What was measured:
[1] = target: T1, Serine/threonine-protein kinase DCLK2 (Homo sapiens) (UniProt Q8N568)
T1 sequence (whole entry): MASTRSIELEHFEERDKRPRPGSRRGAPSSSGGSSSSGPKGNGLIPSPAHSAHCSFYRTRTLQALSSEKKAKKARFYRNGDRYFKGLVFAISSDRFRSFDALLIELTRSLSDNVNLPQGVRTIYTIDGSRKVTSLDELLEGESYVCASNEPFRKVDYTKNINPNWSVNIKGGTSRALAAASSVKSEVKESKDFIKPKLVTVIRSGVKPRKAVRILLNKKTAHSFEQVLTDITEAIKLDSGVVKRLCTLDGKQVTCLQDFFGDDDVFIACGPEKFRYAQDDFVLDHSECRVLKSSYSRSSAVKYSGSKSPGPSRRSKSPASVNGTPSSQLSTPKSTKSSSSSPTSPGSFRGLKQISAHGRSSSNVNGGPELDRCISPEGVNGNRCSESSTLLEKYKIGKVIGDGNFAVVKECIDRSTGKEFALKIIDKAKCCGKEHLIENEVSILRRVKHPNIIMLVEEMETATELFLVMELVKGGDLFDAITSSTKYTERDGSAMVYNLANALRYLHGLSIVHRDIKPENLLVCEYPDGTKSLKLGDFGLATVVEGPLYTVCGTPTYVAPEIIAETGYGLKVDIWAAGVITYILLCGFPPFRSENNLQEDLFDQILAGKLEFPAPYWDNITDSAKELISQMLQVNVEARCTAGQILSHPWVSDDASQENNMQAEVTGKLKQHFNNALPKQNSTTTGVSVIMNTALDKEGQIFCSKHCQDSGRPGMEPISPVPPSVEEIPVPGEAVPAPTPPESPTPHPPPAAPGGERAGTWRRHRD

[2] = target: Leucine-rich repeat serine/threonine-protein kinase 2 (Homo sapiens, UniProt Q5S007); conditions: Compound concentration 1000.0 nM
[3] = target: Beta-1 adrenergic receptor (Homo sapiens) (UniProt P08588); conditions: Compound concentration 10.0 uM
[4] = PRKCB2 (PKC beta II) Kinase screen; conditions: Compound concentration 1.0 uM
[5] = target: Fibroblast growth factor receptor 4 (Homo sapiens) (UniProt P22455); assay: FGFR4 Kinase screen; conditions: Compound concentration 1.0 uM
[6] = target: Myosin light chain kinase, smooth muscle (Homo sapiens) (UniProt Q15746); assay: MYLK (MLCK) Kinase screen; conditions: Compound concentration 1.0 uM
[7] = target: Histamine H1 receptor (Homo sapiens) (UniProt P35367); conditions: Compound concentration 10.0 uM
[8] = target: Calcium/calmodulin-dependent protein kinase type II subunit beta (Homo sapiens) (UniProt Q13554); assay: CAMK2B (CaMKII beta) Kinase screen; conditions: Compound concentration 1.0 uM
[9] = target: Serine/threonine-protein kinase 25 (Homo sapiens) (UniProt O00506); assay: STK25 (YSK1) Kinase screen; conditions: Compound concentration 1.0 uM
[10] = target: T2, Serine/threonine-protein kinase BRSK1 (Homo sapiens) (UniProt Q8TDC3); assay: BRSK1 (SAD1) Kinase screen; conditions: Compound concentration 1.0 uM
T2 sequence (whole entry): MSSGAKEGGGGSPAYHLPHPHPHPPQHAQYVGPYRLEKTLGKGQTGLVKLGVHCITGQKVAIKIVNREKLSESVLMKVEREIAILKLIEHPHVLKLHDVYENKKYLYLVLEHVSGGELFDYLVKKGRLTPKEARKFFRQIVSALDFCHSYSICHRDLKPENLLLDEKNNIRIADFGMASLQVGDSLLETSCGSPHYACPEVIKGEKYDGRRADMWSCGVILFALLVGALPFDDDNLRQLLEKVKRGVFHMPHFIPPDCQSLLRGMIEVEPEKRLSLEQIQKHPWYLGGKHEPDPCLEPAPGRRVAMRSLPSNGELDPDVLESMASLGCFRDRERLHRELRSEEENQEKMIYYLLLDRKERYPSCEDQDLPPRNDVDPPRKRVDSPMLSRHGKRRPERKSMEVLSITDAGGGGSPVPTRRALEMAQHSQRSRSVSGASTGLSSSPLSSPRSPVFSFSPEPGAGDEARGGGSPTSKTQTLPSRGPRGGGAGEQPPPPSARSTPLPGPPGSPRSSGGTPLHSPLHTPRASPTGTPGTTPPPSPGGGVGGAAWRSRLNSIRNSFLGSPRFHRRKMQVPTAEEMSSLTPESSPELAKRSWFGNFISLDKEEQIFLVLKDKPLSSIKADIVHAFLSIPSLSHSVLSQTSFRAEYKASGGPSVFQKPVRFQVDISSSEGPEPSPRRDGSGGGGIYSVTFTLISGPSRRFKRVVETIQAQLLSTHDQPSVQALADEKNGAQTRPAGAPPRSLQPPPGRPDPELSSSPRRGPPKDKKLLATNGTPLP

[11] = target: Protein kinase C eta type (Homo sapiens) (UniProt P24723); assay: PRKCH (PKC eta) Kinase screen; conditions: Compound concentration 1.0 uM
[12] = target: Ribosomal protein S6 kinase alpha-1 (Homo sapiens) (UniProt Q15418); assay: RPS6KA1 (RSK1) Kinase screen; conditions: Compound concentration 1.0 uM
[13] = target: Angiopoietin-1 receptor (Homo sapiens) (UniProt Q02763); assay: TEK (Tie2) Kinase screen; conditions: Compound concentration 1.0 uM
[14] = target: Platelet-derived growth factor receptor beta (Homo sapiens) (UniProt P09619); assay: PDGFRB (PDGFR beta) Kinase screen; conditions: Compound concentration 1.0 uM
[15] = target: T3, Alpha-2A adrenergic receptor (Homo sapiens) (UniProt P08913); assay: Adrenergic alpha2A Eurofins-Panlabs radioligand binding assay; parameters: ligand concentration 1 nM, non-specific ligand with concentration 10 µM WB-4101, incubation time 60 min, incubation temperature 25 °C; conditions: Compound concentration 10.0 uM
T3 sequence (whole entry): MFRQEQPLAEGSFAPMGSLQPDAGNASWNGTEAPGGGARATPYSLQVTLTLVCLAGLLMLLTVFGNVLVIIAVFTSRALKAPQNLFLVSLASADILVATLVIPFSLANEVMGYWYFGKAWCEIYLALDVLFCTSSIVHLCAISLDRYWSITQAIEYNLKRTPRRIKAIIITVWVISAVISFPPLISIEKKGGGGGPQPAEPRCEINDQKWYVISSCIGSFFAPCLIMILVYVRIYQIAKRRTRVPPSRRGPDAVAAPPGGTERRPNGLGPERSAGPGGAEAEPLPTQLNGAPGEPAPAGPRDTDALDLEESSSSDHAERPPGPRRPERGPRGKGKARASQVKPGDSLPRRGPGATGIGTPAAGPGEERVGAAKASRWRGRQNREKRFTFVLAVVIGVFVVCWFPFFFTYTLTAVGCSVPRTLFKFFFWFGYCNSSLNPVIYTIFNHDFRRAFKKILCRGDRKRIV

[16] = target: Serine/threonine-protein kinase 24 (Homo sapiens) (UniProt Q9Y6E0); assay: STK24 (MST3) Kinase screen; conditions: Compound concentration 1.0 uM
[17] = target: Serine/threonine-protein kinase Nek6 (Homo sapiens) (UniProt Q9HC98); assay: NEK6 Kinase screen; conditions: Compound concentration 1.0 uM
[18] = target: Casein kinase II subunit alpha' (Homo sapiens) (UniProt P19784); assay: CSNK2A2 (CK2 alpha 2) Kinase screen; conditions: Compound concentration 1.0 uM
[19] = target: Tyrosine-protein kinase CSK (Homo sapiens) (UniProt P41240); assay: CSK Kinase screen; conditions: Compound concentration 1.0 uM

Chain of Angiopoietin-1 receptor (Homo sapiens) (Q02763 whole entry): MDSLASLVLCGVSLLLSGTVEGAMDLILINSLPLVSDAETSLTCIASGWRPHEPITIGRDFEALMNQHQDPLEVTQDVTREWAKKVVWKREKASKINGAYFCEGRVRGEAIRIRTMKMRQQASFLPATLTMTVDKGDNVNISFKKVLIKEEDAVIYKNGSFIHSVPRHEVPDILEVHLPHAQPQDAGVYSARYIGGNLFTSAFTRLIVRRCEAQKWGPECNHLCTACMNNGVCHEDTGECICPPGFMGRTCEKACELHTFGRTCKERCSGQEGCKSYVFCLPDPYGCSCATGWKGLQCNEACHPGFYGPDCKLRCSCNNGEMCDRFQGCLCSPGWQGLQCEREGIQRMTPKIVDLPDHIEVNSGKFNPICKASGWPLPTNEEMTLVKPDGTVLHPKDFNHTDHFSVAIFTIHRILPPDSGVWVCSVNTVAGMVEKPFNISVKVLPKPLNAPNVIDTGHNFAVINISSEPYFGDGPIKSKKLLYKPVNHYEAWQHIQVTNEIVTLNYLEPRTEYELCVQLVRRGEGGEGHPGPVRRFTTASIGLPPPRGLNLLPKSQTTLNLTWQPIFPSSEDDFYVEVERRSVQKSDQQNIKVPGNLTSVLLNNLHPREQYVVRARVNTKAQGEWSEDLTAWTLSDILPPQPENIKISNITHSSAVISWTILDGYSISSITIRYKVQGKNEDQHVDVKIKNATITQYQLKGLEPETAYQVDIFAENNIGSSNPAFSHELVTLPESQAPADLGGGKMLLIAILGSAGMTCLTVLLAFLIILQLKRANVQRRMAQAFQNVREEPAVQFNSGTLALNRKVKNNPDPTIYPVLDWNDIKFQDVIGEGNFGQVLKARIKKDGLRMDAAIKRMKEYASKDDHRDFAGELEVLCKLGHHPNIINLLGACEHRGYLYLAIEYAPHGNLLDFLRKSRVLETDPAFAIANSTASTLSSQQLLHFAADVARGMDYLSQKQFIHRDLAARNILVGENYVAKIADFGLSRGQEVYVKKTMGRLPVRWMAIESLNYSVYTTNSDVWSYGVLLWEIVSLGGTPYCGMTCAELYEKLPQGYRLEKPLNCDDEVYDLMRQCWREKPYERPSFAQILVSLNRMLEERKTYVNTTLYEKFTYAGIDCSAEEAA
Chain of Myosin light chain kinase, smooth muscle (Homo sapiens) (Q15746 whole entry): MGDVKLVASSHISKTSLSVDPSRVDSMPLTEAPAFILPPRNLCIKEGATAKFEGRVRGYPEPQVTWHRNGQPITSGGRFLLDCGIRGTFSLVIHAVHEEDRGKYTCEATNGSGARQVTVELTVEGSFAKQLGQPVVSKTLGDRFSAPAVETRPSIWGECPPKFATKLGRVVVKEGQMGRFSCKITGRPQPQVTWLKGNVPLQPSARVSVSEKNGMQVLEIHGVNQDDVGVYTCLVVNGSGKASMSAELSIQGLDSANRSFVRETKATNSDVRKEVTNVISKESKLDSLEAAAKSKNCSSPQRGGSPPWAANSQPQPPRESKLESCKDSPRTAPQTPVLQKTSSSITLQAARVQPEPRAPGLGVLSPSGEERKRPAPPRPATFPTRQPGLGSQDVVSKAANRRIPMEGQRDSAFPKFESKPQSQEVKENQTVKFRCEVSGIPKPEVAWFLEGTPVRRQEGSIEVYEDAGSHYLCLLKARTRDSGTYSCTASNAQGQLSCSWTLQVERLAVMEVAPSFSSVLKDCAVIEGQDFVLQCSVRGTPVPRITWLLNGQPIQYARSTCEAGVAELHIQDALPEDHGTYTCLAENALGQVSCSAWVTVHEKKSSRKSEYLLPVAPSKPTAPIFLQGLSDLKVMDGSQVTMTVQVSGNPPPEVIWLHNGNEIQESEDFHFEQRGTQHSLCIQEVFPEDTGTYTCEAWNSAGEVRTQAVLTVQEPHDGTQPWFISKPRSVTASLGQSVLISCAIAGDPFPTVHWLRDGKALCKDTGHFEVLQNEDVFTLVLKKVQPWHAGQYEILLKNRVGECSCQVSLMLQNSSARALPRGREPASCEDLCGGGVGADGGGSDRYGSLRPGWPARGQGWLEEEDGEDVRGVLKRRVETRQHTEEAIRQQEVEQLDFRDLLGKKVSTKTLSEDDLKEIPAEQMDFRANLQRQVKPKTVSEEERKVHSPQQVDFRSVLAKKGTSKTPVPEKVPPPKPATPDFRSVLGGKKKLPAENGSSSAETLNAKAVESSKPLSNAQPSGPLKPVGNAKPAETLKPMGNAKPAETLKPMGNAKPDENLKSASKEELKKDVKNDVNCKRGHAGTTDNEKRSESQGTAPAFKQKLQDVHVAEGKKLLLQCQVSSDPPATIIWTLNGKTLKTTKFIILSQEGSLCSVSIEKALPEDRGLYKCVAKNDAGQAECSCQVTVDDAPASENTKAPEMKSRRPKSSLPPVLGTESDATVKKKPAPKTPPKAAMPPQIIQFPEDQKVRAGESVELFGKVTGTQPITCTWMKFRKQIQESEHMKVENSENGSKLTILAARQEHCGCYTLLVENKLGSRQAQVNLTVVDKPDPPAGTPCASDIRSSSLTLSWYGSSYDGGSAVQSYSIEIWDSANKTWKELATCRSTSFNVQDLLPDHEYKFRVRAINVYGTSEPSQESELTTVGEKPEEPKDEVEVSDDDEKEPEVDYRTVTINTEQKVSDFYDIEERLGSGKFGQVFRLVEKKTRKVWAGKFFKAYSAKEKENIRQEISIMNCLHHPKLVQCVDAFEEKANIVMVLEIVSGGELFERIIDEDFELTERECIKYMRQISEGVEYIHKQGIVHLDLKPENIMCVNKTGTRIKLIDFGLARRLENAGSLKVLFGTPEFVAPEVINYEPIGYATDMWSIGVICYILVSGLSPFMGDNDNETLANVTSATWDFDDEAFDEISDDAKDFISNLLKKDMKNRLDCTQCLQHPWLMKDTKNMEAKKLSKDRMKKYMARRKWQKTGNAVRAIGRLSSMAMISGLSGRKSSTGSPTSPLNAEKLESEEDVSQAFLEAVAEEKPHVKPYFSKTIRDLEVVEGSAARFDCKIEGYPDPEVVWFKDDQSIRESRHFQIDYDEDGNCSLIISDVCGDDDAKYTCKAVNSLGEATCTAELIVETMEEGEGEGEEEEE
Chain of Platelet-derived growth factor receptor beta (Homo sapiens) (P09619 whole entry): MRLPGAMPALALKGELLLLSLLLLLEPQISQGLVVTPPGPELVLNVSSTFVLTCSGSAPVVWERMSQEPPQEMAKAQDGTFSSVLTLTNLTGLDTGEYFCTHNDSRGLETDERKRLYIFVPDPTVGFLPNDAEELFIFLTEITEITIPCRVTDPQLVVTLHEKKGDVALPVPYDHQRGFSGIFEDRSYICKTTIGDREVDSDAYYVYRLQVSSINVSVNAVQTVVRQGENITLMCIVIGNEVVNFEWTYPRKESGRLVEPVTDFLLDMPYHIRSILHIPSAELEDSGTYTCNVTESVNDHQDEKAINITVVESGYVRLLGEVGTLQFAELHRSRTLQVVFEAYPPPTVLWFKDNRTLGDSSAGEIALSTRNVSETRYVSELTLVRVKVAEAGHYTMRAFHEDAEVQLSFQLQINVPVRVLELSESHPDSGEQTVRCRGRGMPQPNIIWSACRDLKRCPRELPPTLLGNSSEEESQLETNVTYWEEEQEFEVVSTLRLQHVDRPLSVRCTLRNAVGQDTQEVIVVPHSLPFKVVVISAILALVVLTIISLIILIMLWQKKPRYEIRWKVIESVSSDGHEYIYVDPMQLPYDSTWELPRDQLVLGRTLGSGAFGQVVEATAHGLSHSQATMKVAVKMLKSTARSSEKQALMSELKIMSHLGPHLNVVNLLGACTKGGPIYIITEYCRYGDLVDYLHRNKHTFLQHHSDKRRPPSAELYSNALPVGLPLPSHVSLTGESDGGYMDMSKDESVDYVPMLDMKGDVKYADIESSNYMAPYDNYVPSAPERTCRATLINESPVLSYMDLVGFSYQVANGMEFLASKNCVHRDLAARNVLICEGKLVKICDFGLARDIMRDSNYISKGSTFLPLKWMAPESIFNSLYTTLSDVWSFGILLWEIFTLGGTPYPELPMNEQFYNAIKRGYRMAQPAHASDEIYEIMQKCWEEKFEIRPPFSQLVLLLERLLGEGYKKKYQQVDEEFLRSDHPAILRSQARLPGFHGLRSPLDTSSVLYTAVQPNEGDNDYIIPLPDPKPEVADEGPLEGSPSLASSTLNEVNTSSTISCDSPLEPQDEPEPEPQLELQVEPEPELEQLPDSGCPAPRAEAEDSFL
Chain of Serine/threonine-protein kinase 24 (Homo sapiens) (Q9Y6E0 whole entry, looked up): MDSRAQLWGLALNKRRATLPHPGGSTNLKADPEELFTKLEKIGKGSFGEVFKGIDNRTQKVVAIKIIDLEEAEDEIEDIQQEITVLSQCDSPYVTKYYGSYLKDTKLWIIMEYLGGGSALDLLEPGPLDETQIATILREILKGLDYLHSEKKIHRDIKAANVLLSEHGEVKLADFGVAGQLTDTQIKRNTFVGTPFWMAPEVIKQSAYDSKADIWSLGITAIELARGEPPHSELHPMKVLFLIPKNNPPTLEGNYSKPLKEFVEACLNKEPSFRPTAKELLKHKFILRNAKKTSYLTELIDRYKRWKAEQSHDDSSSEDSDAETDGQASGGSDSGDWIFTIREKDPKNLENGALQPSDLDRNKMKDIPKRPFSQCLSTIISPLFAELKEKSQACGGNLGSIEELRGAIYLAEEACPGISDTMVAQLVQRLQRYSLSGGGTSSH
Chain of Beta-1 adrenergic receptor (Homo sapiens) (P08588 whole entry, looked up): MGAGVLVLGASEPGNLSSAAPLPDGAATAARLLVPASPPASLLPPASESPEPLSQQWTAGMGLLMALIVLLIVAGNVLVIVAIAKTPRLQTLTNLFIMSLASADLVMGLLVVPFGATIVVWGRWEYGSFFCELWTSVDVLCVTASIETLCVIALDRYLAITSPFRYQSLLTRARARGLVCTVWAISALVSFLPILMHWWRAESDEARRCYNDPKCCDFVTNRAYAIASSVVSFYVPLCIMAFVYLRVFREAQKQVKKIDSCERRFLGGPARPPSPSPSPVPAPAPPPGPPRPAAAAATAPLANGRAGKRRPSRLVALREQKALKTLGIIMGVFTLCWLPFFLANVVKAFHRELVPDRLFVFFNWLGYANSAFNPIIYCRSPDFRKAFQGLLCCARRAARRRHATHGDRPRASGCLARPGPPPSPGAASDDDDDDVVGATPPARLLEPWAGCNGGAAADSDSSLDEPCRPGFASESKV

SMILES | residual activity ([1]; Compound concentration 1000.0 nM) [%] | residual activity [2] [%] | inhibition [3] [%] | inhibition [4] [%] | inhibition [5] [%] | inhibition [6] [%] | inhibition [7] [%] | inhibition [8] [%] | inhibition [9] [%] | inhibition [10] [%] | residual activity ([1]; Compound concentration 100.0 nM) [%] | inhibition [11] [%] | inhibition [12] [%] | inhibition [13] [%] | inhibition [14] [%] | inhibition [15] [%] | inhibition [16] [%] | inhibition [17] [%] | inhibition [18] [%] | inhibition [19] [%]
C[C@@H]1CN(c2cc(-c3nn(C)c4ccc(OC5(C)CC5)cc34)ncn2)C[C@H](C)O1 [MLi-2-NC] | 100 | 22 | 5.75 |  |  |  |  |  |  |  |  |  |  |  |  |  |  |  |  | 
C[C@@H]1CN(c2cc(-c3n[nH]c4ccc(OC5(C)CC5)cc34)ncn2)C[C@H](C)O1 [MLi-2] |  |  |  | 10.4 | 14.8 | 10.9 | -4 | 12.6 | 2.24 | 4.76 | 89 | 6.4 | 8.66 | 2.36 | 6.43 | 6 | 7.34 | 4.75 | 10.4 | 5.55

— ChEMBL document CHEMBL4507291 (2021)
